Values quoted from earlier work, collected in US10543293B2, “Medical dressing” (BSN MEDICAL GMBH, priority 2013, dated 2020).

What was measured:
[1] = generally assumed
human fibroblasts = settings: NO concentrations employed in vitro
keratinocytes = settings: NO concentrations employed in vitro; human keratinocytes
endothelial cells = settings: NO concentrations employed in vitro; human endothelial cells

SMILES: [N]=O [NO, nitric oxide]
- diffusion coefficient of NO relative to oxygen or carbon monoxide (at 37° C., higher than that of oxygen or carbon monoxide): approximately 1.4 times
- diffusion path that can be achieved in the tissues (calculated on the basis of the diffusion coefficient): 500 μm
- maximum solubility of NO in aqueous solutions [1]: approximately 2 mM
- toxic effects (human fibroblasts): did not display any toxic effects
- toxic effects (keratinocytes): did not display any toxic effects
- toxic effects (endothelial cells): did not display any toxic effects
